Reference: patent US20170347654A1, “Herbicidal Compounds” (SYNGENTA PARTICIPATIONS AG, priority 2014, published 2017)

Tests used:
Assay in all cases: Post-emergence efficacy (glasshouse)
Format in all cases: in vivo
Details in all cases: evaluated after 13 days
[1] = system: Amaranthus retoflexus (AMARE)
Protocol: (§1) Seeds of a variety of test species (such as, for example, Solanum nigrum (SOLNI), Amaranthus retoflexus (AMARE), Setaria faberi (SETFA), Echinochloa crusgalli (ECHCG), Ipomoea hederacea (IPOHE) and Lolium perenne (LOLPE)) are sown in standard soil in pots. After 8 days cultivation (post-emergence) under controlled conditions in a glasshouse (at 24/16° C., day/night; 14 hours light; 65% humidity), the plants are sprayed with an aqueous spray solution derived from the formulation of the technical active ingredient in acetone/water (50:50) solution containing 0.5% Tween 20 (polyoxyethylene sorbitan monolaurate, CAS RN 9005-64-5). Compounds are applied at 1000 and 62.5 g/ha. The test plants are then grown under controlled conditions in a glasshouse (at 24/16° C., day/night; 14 hours light; 65% humidity) and watered twice daily. After 13 days, the test is evaluated for the percentage damage caused to the plant. The biological activities are assessed on a five point scale (5=80-100%; 4=60-79%; 3=40-59%; 2=20-39%; 1=0-19%).

Setaria faberi (SETFA) = system: Setaria faberi (SETFA)
Protocol: as §1

[2] = system: Ipomoea hederacea (IPOHE)
Protocol: as §1

Lolium perenne (LOLPE) = system: Lolium perenne (LOLPE)
Protocol: as §1

[3] = system: Echinochloa crusgalli (ECHCG)
Protocol: as §1

Solanum nigrum (SOLNI) = system: Solanum nigrum (SOLNI)
Protocol: as §1

SMILES | percentage damage caused to the plant, AMARE (five point scale) ([1]; 62.5 g/ha) | percentage damage caused to the plant, AMARE (five point scale) ([1]; 1000 g/ha) | percentage damage caused to the plant, SETFA (five point scale) (Setaria faberi (SETFA); 62.5 g/ha) | percentage damage caused to the plant, SETFA (five point scale) (Setaria faberi (SETFA); 1000 g/ha) | percentage damage caused to the plant, IPOHE (five point scale) ([2]; 62.5 g/ha) | percentage damage caused to the plant, IPOHE (five point scale) ([2]; 1000 g/ha) | percentage damage caused to the plant, LOLPE (five point scale) (Lolium perenne (LOLPE); 62.5 g/ha) | percentage damage caused to the plant, LOLPE (five point scale) (Lolium perenne (LOLPE); 1000 g/ha) | percentage damage caused to the plant, ECHCG (five point scale) ([3]; 62.5 g/ha) | percentage damage caused to the plant, ECHCG (five point scale) ([3]; 1000 g/ha) | percentage damage caused to the plant, SOLNI (five point scale) (Solanum nigrum (SOLNI); 62.5 g/ha) | percentage damage caused to the plant, SOLNI (five point scale) (Solanum nigrum (SOLNI); 1000 g/ha)
O=c1c(-c2c(Cl)ccc(Cl)c2OCc2ccccc2)c(O)c2scnc2n1CC(F)F [Compound 1.021] | 5 (5=80-100%) | 5 (5=80-100%) | 4 (4=60-79%) | 5 (5=80-100%) | 5 (5=80-100%) | 5 (5=80-100%) | 4 (4=60-79%) | 5 (5=80-100%) | 4 (4=60-79%) | 5 (5=80-100%) | 5 (5=80-100%) | 5 (5=80-100%)
C#CCn1c(=O)c(-c2c(F)ccc(Cl)c2OCc2ccccc2)c(O)c2scnc21 [Compound 1.007] | 5 (5=80-100%) | 5 (5=80-100%) | 5 (5=80-100%) | 5 (5=80-100%) | 5 (5=80-100%) | 5 (5=80-100%) | 5 (5=80-100%) | 5 (5=80-100%) | 5 (5=80-100%) | 5 (5=80-100%) | 5 (5=80-100%) | 5 (5=80-100%)
Cn1c(=O)c(-c2c(F)ccc(Cl)c2OCc2ccccc2)c(O)c2scnc21 [Compound 1.017] | 4 (4=60-79%) | 5 (5=80-100%) | 1 (1=0-19%) | 5 (5=80-100%) | 5 (5=80-100%) | 5 (5=80-100%) | 4 (4=60-79%) | 5 (5=80-100%) | 2 (2=20-39%) | 5 (5=80-100%) | 5 (5=80-100%) | 5 (5=80-100%)
O=c1c(-c2c(F)ccc(Cl)c2OCc2ccccc2)c(O)c2scnc2n1CC(F)F [Compound 1.027] | 5 (5=80-100%) | 5 (5=80-100%) | 3 (3=40-59%) | 5 (5=80-100%) | 5 (5=80-100%) | 5 (5=80-100%) | 4 (4=60-79%) | 5 (5=80-100%) | 3 (3=40-59%) | 5 (5=80-100%) | 5 (5=80-100%) | 5 (5=80-100%)
O=c1c(-c2c(C(F)(F)F)ccc(Cl)c2OCc2ccccc2)c(O)c2scnc2n1CC(F)F [Compound 1.029] | 4 (4=60-79%) | 5 (5=80-100%) | 2 (2=20-39%) | 5 (5=80-100%) | 4 (4=60-79%) | 5 (5=80-100%) | 2 (2=20-39%) | 5 (5=80-100%) | 3 (3=40-59%) | 5 (5=80-100%) | 5 (5=80-100%) | 5 (5=80-100%)
Cn1c(=O)c(-c2c(Cl)ccc(Cl)c2OCc2ccccc2)c(O)c2scnc21 [Compound 1.011] | 4 (4=60-79%) | 5 (5=80-100%) | 2 (2=20-39%) | 5 (5=80-100%) | 5 (5=80-100%) | 5 (5=80-100%) | 2 (2=20-39%) | 5 (5=80-100%) | 3 (3=40-59%) | 5 (5=80-100%) | 5 (5=80-100%) | 5 (5=80-100%)
C#CCn1c(=O)c(-c2c(C(F)(F)F)ccc(Cl)c2OCc2ccccc2)c(O)c2scnc21 [Compound 1.009] | 5 (5=80-100%) | 5 (5=80-100%) | 5 (5=80-100%) | 5 (5=80-100%) | 5 (5=80-100%) | 5 (5=80-100%) | 5 (5=80-100%) | 5 (5=80-100%) | 5 (5=80-100%) | 5 (5=80-100%) | 5 (5=80-100%) | 5 (5=80-100%)
C#CCn1c(=O)c(-c2c(Cl)ccc(Cl)c2OCc2ccccc2)c(O)c2scnc21 [Compound 1.001, 6-(2-benzyloxy-3,6-dichloro-phenyl)-7-hydroxy-4-prop-2-ynyl-thiazolo[4,5-b]pyridin-5-one] | 5 (5=80-100%) | 5 (5=80-100%) | 5 (5=80-100%) | 5 (5=80-100%) | 5 (5=80-100%) | 5 (5=80-100%) | 5 (5=80-100%) | 5 (5=80-100%) | 5 (5=80-100%) | 5 (5=80-100%) | 5 (5=80-100%) | 5 (5=80-100%)
Cn1c(=O)c(-c2c(C(F)(F)F)ccc(Cl)c2OCc2ccccc2)c(O)c2scnc21 [Compound 1.019] | 4 (4=60-79%) | 5 (5=80-100%) | 3 (3=40-59%) | 5 (5=80-100%) | 5 (5=80-100%) | 5 (5=80-100%) | 3 (3=40-59%) | 5 (5=80-100%) | 3 (3=40-59%) | 5 (5=80-100%) | 5 (5=80-100%) | 5 (5=80-100%)
